# Test results published in patent US20220144823A1, “PYRAZOLOPYRIDINE DERIVATIVES AS INHIBITORS OF PASK” (Galapagos NV, priority 2019, published 2022).
# Biological target: T1, autophosphorylation of PASK at position Thr307 in Hek293 cells overexpressing PASK (Homo sapiens, UniProt Q96RG2)
# T1 construct: expressed in transfected cells; host or cells: Hek293
# Assay: PASK autophosphorylation ELISA assay
# Format: cell-based
# Conditions: 24 h, ELISA readout
# How it was run: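 Hek293 cells transiently transfected with full-length wild-type PASK-FLAG, treated 24 h in serum-free DMEM with an 8-point 1/3 dilution series from 30 μM final (0.3% DMSO). Lysates captured on anti-FLAG ELISA plates, Thr307 phosphorylation detected with phospho-Akt substrate (RXXS*/T*) antibody and HRP chemiluminescence; IC50 from percentage inhibition curves.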
# T1 sequence (Q96RG2 with tags, fused parts or gaps): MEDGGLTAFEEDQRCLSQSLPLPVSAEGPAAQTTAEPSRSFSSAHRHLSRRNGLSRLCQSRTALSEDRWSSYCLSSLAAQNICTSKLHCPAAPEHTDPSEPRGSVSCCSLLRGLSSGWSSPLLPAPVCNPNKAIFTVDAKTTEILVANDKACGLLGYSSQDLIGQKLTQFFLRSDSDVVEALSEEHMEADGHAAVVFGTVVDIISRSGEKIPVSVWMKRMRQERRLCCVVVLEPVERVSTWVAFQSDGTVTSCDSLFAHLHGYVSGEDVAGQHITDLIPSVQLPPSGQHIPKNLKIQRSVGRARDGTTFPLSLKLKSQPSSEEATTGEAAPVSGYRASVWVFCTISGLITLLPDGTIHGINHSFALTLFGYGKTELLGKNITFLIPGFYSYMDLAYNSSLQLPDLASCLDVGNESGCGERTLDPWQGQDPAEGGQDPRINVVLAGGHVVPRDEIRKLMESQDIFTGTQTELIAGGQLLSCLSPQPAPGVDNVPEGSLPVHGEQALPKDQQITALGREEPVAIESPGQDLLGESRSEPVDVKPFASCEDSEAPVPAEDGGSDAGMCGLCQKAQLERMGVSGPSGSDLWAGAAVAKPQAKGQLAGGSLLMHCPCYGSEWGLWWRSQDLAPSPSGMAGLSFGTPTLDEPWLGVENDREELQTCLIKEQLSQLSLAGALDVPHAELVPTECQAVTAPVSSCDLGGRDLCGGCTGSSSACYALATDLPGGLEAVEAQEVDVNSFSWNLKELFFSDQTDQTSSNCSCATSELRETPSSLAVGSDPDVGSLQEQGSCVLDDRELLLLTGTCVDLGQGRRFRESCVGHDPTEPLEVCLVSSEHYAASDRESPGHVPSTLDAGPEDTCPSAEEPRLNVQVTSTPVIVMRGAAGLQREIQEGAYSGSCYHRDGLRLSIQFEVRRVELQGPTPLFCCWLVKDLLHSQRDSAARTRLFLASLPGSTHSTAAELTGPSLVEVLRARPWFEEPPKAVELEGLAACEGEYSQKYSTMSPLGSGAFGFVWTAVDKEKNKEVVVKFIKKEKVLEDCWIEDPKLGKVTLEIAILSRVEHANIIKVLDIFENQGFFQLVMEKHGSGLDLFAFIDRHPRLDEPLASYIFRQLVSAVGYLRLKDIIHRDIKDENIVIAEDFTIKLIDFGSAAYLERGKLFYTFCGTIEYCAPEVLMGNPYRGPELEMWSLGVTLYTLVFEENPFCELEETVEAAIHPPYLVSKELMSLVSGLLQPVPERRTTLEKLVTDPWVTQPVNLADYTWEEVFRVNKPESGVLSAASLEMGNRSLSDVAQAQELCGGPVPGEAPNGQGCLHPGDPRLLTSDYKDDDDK
compound,measurement,value
"Cc1nn(C(C)C)c(C)c1-c1cnn2ccc(-c3cc(C(=O)O)co3)cc12 [Cpd 18, 5-[3-(1-isopropyl-3,5-dimethyl-pyrazol-4-yl)pyrazolo[1,5-a]pyridin-5-yl]furan-3-carboxylic acid]",IC50,500 to 1000 nM
